From patent publication US6166013A, “Glucocortiocoid-selective agents” (Abbott Laboratories, priority 1999, dated 2000)
Where two headings read alike, the source gives them in different places.

What was measured:
[1] = biological target: T1, human estrogen receptor-alpha (Homo sapiens, UniProt P03372); assay: soluble estrogen receptor-alpha (ER-α) binding assay, [3H]-estradiol
T1 construct: made in house; host or cells: yeast strain BJ2168 (copper induced)
T1 sequence (P03372 1-595): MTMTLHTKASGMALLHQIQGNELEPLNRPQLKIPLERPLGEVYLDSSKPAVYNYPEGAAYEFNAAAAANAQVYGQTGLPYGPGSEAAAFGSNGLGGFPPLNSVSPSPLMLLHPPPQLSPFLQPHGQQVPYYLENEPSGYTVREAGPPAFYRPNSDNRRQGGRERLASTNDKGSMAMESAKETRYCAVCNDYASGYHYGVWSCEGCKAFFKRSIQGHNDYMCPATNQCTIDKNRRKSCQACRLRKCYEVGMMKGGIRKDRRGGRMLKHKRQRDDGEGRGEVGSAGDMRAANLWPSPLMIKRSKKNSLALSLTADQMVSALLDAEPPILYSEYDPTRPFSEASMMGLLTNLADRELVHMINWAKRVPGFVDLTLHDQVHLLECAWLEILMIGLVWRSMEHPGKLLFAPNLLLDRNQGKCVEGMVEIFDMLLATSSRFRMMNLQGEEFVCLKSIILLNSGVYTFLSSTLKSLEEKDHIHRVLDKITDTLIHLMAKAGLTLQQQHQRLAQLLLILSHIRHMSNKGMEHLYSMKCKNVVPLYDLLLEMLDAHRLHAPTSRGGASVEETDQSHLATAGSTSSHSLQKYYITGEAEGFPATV
From the text: For soluble estrogen receptor-alpha (ER-α) binding assays, [^3 H]- Estradiol (120-140 Ci/mmol) was purchased from New England Nuclear (Boston, Mass.), 17-beta estradiol was purchased from Sigma Chemical Co. (St. Louis, Mo.), CHAPS and DTT were purchased from Boehringer Mannheim GmbH (W. Germany) and all other reagents were purchased from Sigma.
The human estrogen receptor-alpha cDNA was cloned into a yeast vector termed pYhERα and used to transform wild type yeast strain BJ2168 following the protocol outlined by Pham, T. A., Hwung Y. P., Santiso-Mere,D., McDonnell D. P., O'Malley, B. W., Ligand-Dependent and Independent Function of the Transactivation Regions of the Human Estrogen Receptor in Yeast, Mol. Endocrinol. […] The yeast was induced with copper for 16 hours after which the cells were harvested, washed and the receptor extract prepared in cold buffer via a Bead Beater (BioSpec Products, Bartlesville, Okla.). Aliquots of the receptor typically contained 5-10 mg/ml of total protein and were stored at -80° C. until used. Estradiol or other competing compounds were prepared as 5 mM stock solutions in either 100% ethanol or DMSO and serial dilutions were carried out in 1:1 DMSO-ethanol. The assay buffer consisted of the following: 300 mM potassium chloride, 10 mM Trizma Base, 2 mM DTT and 5 mM CHAPS, pH=7.5 at room temperature.
Assays were set up using a 96-well minitube system and incubations were carried out at 4° C. for 18 hours. Equilibrium under these conditions of buffer and temperature was achieved by 6-8 hours. Nonspecific binding was defined as that binding remaining in the presence of 1000 nM unlabeled estradiol. […] The amount of receptor-ligand complex was determined by liquid scintillation counting of the hydroxyapatite pellet after the addition of […] EcoScint A scintillation cocktail from National Diagnostics (Atlanta, Ga.).
After correcting for nonspecific binding, IC50 values were determined. […] The IC50 values were determined graphically from a log-logit plot of the data.

[2] = biological target: T2, human glucocorticoid receptor-α [GRX] isoform (Homo sapiens, UniProt P04150); assay: glucocorticoid receptor (GR) cytosol binding assay, [3H]-dexamethasone; settings: displacement of [3H]-Dex (~0.9 nM), 4° C. overnight
T2 construct: purchased Ligand Pharmaceuticals (San Diego, Calif.); host or cells: insect SF21 cells (baculovirus)
T2 sequence (P04150 1-777): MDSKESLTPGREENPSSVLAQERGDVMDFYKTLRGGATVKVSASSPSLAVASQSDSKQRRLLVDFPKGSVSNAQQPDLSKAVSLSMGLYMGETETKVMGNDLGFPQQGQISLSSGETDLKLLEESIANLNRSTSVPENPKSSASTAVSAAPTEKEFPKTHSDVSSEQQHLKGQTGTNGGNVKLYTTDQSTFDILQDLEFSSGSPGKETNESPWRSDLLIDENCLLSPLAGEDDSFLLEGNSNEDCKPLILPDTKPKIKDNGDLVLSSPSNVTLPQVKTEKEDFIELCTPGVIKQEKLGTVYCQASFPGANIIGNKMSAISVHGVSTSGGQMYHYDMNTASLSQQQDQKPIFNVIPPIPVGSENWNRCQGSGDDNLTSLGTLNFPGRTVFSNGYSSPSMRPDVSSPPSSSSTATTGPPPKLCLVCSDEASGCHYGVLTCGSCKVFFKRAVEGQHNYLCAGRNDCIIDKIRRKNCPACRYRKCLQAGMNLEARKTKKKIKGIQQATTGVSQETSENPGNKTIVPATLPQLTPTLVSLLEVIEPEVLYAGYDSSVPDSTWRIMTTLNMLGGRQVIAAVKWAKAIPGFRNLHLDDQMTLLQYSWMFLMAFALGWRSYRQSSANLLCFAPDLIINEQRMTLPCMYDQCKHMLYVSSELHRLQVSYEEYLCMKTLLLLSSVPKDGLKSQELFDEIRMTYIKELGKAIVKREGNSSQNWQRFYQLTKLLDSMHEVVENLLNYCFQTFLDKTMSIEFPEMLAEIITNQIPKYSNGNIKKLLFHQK
From the text: Briefly, cytosol preparations of human glucocorticoid receptor-α [GRX] isoform and human progesterone receptor-A [PRA] isoform were obtained from Ligand Pharmaceuticals (San Diego, Calif.). Both receptor cDNAs were cloned into baculovirus expression vectors and expressed in insect SF21 cells. [^3 H]-dexamethasone (Dex, specific activity 82-86 Ci/mmole) and [^3 H]-progesterone (Prog, specific activity 97-102 Ci/mmol) were purchased from Amersham Life Sciences (Arlington Heights, Ill.). Glass fiber type C multiscreen MAFC NOB plates were from Millipore (Burlington, Mass.). Hydroxyapatide Bio-Gel HTP gel was obtained from Bio-Rad Laboratories (Hercules, Calif.). Tris(hydroxymethyl)aminomethane (Tris), ethylenediaminetetraacetic acid (EDTA), glycerol, dithiothreitol (DTT) and sodium moylybdate were obtained from Sigma Chemicals (St. Louis, Mo.). […]
After an overnight incubation, 50 μL of hydroxyapatite (25% weight/volume) slurry were added to each well and plates were incubated for 10 min at 4° C. in a plate shaker. […] The amount of radioactivity was determined with a Packard TopCount plate reader.
The Ki of test compounds was determined using the Cheng-Prusoff equation Ki =IC50 /(1+[L*]/[KL ]) where L* is the concentration of radioligand and KL is the dissociation constant of the radioligand determined from saturation analysis.

[3] = displacement of [3H]-estradiol (2-3 nM), 4° C., 18 hours, read-out: Ki ER-α

SMILES | Ki [1, 3] | Ki [2] | also measured
CN(C)c1ccc(C(c2ccc(N(C)C)cc2)c2cc(Cl)ccc2Cl)cc1 [Example 24, 4',4"bis(dimethylamino)-2,5-dichlorotriphenylmethane] |  |  | Ki [1]: > 10 µM
CC(=O)OCCN(C)c1ccc(C(c2ccc(N(C)CCOC(C)=O)cc2)c2cc([N+](=O)[O-])ccc2Cl)cc1 [Example 31, 4',4"bis(N-(2-acetoxyethyl) N-methylamino)-2-chloro-5-nitrotriphenylmethane] | > 10 µM |  | 
CN(CCO)c1ccc(C(c2ccc(N(C)CCO)cc2)c2cc([N+](=O)[O-])ccc2Cl)cc1 [Example 32, 4',4"bis(N-(2-hydroxyethyl) N-methylamino)-2-chloro-5-nitrotriphenylmethane] | > 10 µM |  | 
CN(C(=O)OC(C)(C)C)c1ccc(C(c2ccc(N(C)C(=O)OC(C)(C)C)cc2)c2cc([N+](=O)[O-])ccc2Cl)cc1 [Example 35, 4',4"bis(N-(t-butoxycarbonyl) N-methylamino)-2-chloro-5-nitrotriphenylmethane] |  | 4.56 µM | 
CN(C)c1ccc(C(c2ccc(N(C)C)cc2)c2cc(NC(=O)/C=C/c3ccc([N+](=O)[O-])cc3)ccc2Cl)cc1 [Example 61, 4',4"bis(dimethylamino)-2-chloro-5-(4-nitrocinnamido)triphenylmethane] |  | 4.6 µM | 
